Experimental data as given in patent US20260364080A1, “PYRAZOLO-PYRIMIDINONE COMPOUNDS FOR USE IN METHODS OF INHIBITING WEE1 A KINASE” (Acrivon Therapeutics, Inc., priority 2023, published 2026).
pEC50, pIC50: −log10 of the molar value. Read-outs that look alike come from different tables or passages of the source.

Experiments:
[1] = molecular target: T1, recombinant human Wee1A kinase (Homo sapiens, UniProt P30291); assay: Wee1A kinase binding assay (LanthaScreen Eu time-resolved FRET)
T1 construct: full length Wee1 kinase was expressed by baculovirus in insect cells; purchased Invitrogen PV3817; host or cells: insect cells (baculovirus)
T1 sequence (P30291 whole entry): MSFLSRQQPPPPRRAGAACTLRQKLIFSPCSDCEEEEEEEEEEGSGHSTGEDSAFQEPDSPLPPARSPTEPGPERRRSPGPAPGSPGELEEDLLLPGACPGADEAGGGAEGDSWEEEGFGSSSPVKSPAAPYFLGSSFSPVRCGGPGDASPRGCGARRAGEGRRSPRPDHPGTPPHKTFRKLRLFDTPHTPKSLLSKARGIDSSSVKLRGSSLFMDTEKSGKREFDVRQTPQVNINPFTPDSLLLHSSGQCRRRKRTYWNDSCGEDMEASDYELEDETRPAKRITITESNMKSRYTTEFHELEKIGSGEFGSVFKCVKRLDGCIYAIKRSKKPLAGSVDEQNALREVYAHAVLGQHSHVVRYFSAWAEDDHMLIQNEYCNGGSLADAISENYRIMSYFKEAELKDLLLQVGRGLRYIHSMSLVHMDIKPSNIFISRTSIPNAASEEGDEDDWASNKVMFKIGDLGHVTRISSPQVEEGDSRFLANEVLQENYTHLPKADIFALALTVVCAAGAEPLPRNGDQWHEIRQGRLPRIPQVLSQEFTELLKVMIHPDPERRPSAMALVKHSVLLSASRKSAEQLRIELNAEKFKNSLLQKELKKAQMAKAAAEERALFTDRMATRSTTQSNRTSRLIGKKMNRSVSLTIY
Outline: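 Full-length, baculovirus-expressed GST-tagged Wee1A (5 nM) was mixed with 2 nM Eu-anti-GST antibody, 30 nM kinase tracer 178 and compound (1% DMSO). Buffer was 50 mM HEPES pH 7.5, 10 mM MgCl2, 1 mM EGTA, 0.01% Brij-35, incubated 60 min at room temperature. TR-FRET 665/615 nm emission ratios from duplicates were curve-fitted.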

[2] = molecular target: T2, Myt1 kinase (recombinant PMYT-1) (Homo sapiens, UniProt Q99640); assay: Myt1 kinase binding assay (LanthaScreen Eu Kinase Binding Assay)
T2 construct: full length PMYT-1 was expressed by baculovirus in insect cells; purchased Invitrogen A30984; host or cells: insect cells (baculovirus)
T2 sequence (Q99640 1-499): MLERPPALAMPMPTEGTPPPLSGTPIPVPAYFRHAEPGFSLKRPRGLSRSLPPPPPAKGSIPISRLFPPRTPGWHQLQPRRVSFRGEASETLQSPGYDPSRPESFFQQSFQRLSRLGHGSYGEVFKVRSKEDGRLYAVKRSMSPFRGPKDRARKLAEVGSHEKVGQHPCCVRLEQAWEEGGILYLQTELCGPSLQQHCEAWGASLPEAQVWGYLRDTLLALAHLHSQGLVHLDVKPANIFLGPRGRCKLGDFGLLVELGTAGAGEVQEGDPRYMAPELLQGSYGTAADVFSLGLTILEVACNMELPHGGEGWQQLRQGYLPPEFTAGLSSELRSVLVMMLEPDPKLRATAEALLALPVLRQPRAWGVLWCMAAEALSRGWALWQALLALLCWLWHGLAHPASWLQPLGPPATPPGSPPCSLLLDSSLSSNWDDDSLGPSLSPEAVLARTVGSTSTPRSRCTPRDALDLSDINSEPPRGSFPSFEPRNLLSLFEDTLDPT
Outline: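 The binding affinity of compounds for Myt1 kinase was measured with a LanthaScreen Europium (Eu) Kinase Binding Assay, a time-resolved FRET format in which test compounds compete against a labeled kinase tracer, and the results were expressed as IC50 values describing compound binding to Myt1.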

[3] = molecular target: T3, Wee1A kinase (CDK1 Tyr15 phosphorylation in ACHN renal cell carcinoma cells) (Homo sapiens, UniProt P30291); assay: High-content imaging of pCdk1 Y15, Wee1A kinase target engagement in ACHN cells; assay type: cell-based
T3 construct: pCDK1 Tyr15 immunofluorescence read-out
T3 sequence (P30291 whole entry): as the sequence (P30291 whole entry) above
Outline: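 ACHN cells exposed to compound for 4 h over 7–5,000 nM or 0.3–200 nM, then fixed and immunostained for pCDK1 Y15 with DAPI nuclear counterstain. The percentage of pCdk1 Y15 nucleus-positive cells relative to DMSO control was imaged per well; EC50 from dose-response curves.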

[4] = 30 nM tracer 178, 5 nM Wee1A kinase, 2 nM Eu-labeled antibody, 60 minutes at room temperature, read-out: Wee1A kinase Binding IC50
[5] = 3 nM tracer 178, 2.5 nM PMYT-1, 1 nM Eu-labeled antibody, read-out: Myt1 kinase Binding IC50
[6] = 4 h treatment, nuclear positivity for pCdk1 Y15 vs DMSO control, read-out: CDK1 Tyr15 Phosphorylation EC50
[7] = Myt1 kinase Binding IC50, 3 nM tracer 178, 2.5 nM PMYT-1, 1 nM Eu-labeled antibody
[8] = read-out: CDK1 Tyr15 Phosphorylation EC50, 4 h treatment, nuclear positivity for pCdk1 Y15 vs DMSO control

| SMILES | pIC50 [1, 4] | pIC50 [2, 5] | pEC50 [3, 6] | pIC50 [1] | pIC50 [2, 7] | pEC50 [3, 8] |
| --- | --- | --- | --- | --- | --- | --- |
| C=CCn1c(=O)c2cnc(Nc3ccc(OC(F)(F)F)cc3)nc2n1-c1cccc(NC2CCNCC2)n1 [Compound 135, 1-{6-[(piperidin-4-yl)amino]pyridin-2-yl}-2-(prop-2-en-1-yl)-6-{[4-(trifluoromethoxy)phenyl]amino}-1H,2H,3H-pyrazolo[3,4-d]pyrimidin-3-one] | > 8.00 | 6.30 to 7.00 | 6.00 to 6.30 | – | – | – |
| C=CCn1c(=O)c2cnc(Nc3ccc(OC(F)(F)F)c(C)c3)nc2n1-c1cccc(NC2CCNCC2)n1 [Compound 136, 6-{[3-methyl-4-(trifluoromethoxy)phenyl]amino}-1-{6-[(piperidin-4-yl)amino]pyridin-2-yl}-2-(prop-2-en-1-yl)-1H,2H,3H-pyrazolo[3,4-d]pyrimidin-3-one] | > 8.00 | 6.30 to 7.00 | 6.30 to 7.00 | – | – | – |
| C=CCn1c(=O)c2cnc(Nc3ccc(Br)cc3)nc2n1-c1cccc(NC2CCNCC2)n1 [Compound 143, 6-[(4-bromophenyl)amino]-1-{6-[(piperidin-4-yl)amino]pyridin-2-yl}-2-(prop-2-en-1-yl)-1H,2H,3H-pyrazolo[3,4-d]pyrimidin-3-one] | > 8.00 | 7.00 to 7.70 | 6.00 to 6.30 | – | – | – |
| C=CCn1c(=O)c2cnc(Nc3cc(Cl)cc(Br)c3)nc2n1-c1cccc(NC2CCNCC2)n1 [Compound 144, 6-[(3-bromo-5-chlorophenyl)amino]-1-{6-[(piperidin-4-yl)amino]pyridin-2-yl}-2-(prop-2-en-1-yl)-1H,2H,3H-pyrazolo[3,4-d]pyrimidin-3-one] | > 8.00 | < 6.30 | 6.00 to 6.30 | – | – | – |
| C=CCn1c(=O)c2cnc(Nc3ccc(Cl)c(Cl)c3)nc2n1-c1cccc(NC2CCNCC2)n1 [Compound 146, 2-allyl-6-(3,4-dichlorophenylamino)-1-[6-(4-piperidylamino)-2-pyridyl]-1,2-dihydro-3H-1,2,5,7-tetraazainden-3-one] | > 8.00 | 6.30 to 7.00 | < 6.00 | – | – | – |
| C=CCn1c(=O)c2cnc(Nc3ccc(Cl)cc3)nc2n1-c1cccc(N(CCC)C2CCNCC2)n1 [Compound 147] | – | – | – | > 8.00 | < 6.30 | < 6.00 |
| C=CCn1c(=O)c2cnc(Nc3ccc(Cl)cc3)nc2n1-c1cccc(O[C@H]2CCN(C)C2)n1 [Compound 148, 1-{6-[(S)-1-methyl-3-pyrrolidinyloxy]-2-pyridyl}-2-allyl-6-(p-chlorophenylamino)-1,2-dihydro-3H-1,2,5,7-tetraazainden-3-one] | > 8.00 | 7.00 to 7.70 | 6.30 to 7.00 | – | – | – |
| C=CCn1c(=O)c2cnc(Nc3ccc(Cl)cc3)nc2n1-c1cccc(N(CCC)C2CCN(C)CC2)n1 [Compound 149, 6-[(4-chlorophenyl)amino]-1-{6-[(1-methylpiperidin-4-yl)(propyl)amino]pyridin-2-yl}-2-(prop-2-en-1-yl)-1H,2H,3H-pyrazolo[3,4-d]pyrimidin-3-one] | – | – | – | > 8.00 | < 6.30 | 6.00 to 6.30 |
| CN1CCC(Oc2cccc(-n3c4nc(Nc5ccc(Cl)cc5)ncc4c(=O)n3C)n2)CC1 [Compound 150, 6-(p-chlorophenylamino)-2-methyl-1-[6-(1-methyl-4-piperidyloxy)-2-pyridyl]-1,2-dihydro-3H-1,2,5,7-tetraazainden-3-one] | > 8.00 | 7.00 to 7.70 | 6.30 to 7.00 | – | – | – |
| C=CCn1c(=O)c2cnc(Nc3ccc(Cl)c(Cl)c3)nc2n1-c1cccc(NC2CCN(C)CC2)n1 [Compound 151, 2-allyl-6-(3,4-dichlorophenylamino)-1-[6-(1-methyl-4-piperidylamino)-2-pyridyl]-1,2-dihydro-3H-1,2,5,7-tetraazainden-3-one] | > 8.00 | 6.30 to 7.00 | 6.30 to 7.00 | – | – | – |
| Cc1cc(Nc2ncc3c(=O)n(C)n(-c4cccc(OC5CCN(C)CC5)n4)c3n2)ccc1F [Compound 152, 6-(4-fluoro-3-toluidino)-2-methyl-1-[6-(1-methyl-4-piperidyloxy)-2-pyridyl]-1,2-dihydro-3H-1,2,5,7-tetraazainden-3-one] | > 8.00 | 7.00 to 7.70 | 6.30 to 7.00 | – | – | – |
| Cn1c(=O)c2cnc(Nc3ccc(Cl)cc3)nc2n1-c1cccc(OC2CCNCC2)n1 [Compound 153, 6-(p-chlorophenylamino)-2-methyl-1-[6-(4-piperidyloxy)-2-pyridyl]-1,2-dihydro-3H-1,2,5,7-tetraazainden-3-one] | > 8.00 | 7.00 to 7.70 | 6.00 to 6.30 | – | – | – |
| Cc1cc(Nc2ncc3c(=O)n(C)n(-c4cccc(OC5CCNCC5)n4)c3n2)ccc1F [Compound 154, 6-(4-fluoro-3-toluidino)-2-methyl-1-[6-(4-piperidyloxy)-2-pyridyl]-1,2-dihydro-3H-1,2,5,7-tetraazainden-3-one] | > 8.00 | 6.30 to 7.00 | 6.30 to 7.00 | – | – | – |
| C=CCn1c(=O)c2cnc(Nc3cc(C)cc(OC(F)(F)F)c3)nc2n1-c1cccc(NC2CCNCC2)n1 [Compound 155, 6-{[3-methyl-5-(trifluoromethoxy)phenyl]amino}-1-{6-[(piperidin-4-yl)amino]pyridin-2-yl}-2-(prop-2-en-1-yl)-1H,2H,3H-pyrazolo[3,4-d]pyrimidin-3-one] | > 8.00 | 6.30 to 7.00 | 6.00 to 6.30 | – | – | – |
| C=CCn1c(=O)c2cnc(Nc3ccc(Cl)cc3)nc2n1-c1cccc(N(C)C2CCNCC2)n1 [Compound 156, 6-[(4-chlorophenyl)amino]-1-{6-[methyl(piperidin-4-yl)amino]pyridin-2-yl}-2-(prop-2-en-1-yl)-1H,2H,3H-pyrazolo[3,4-d]pyrimidin-3-one] | – | – | – | > 8.00 | 6.30 to 7.00 | 6.00 to 6.30 |
| C=CCn1c(=O)c2cnc(Nc3cc(-c4ccccc4)ns3)nc2n1-c1cccc(NC2CCN(C)CC2)n1 [Compound 158, 2-allyl-1-[6-(1-methyl-4-piperidylamino)-2-pyridyl]-6-(3-phenyl-5-isothiazolylamino)-1,2-dihydro-3H-1,2,5,7-tetraazainden-3-one] | > 8.00 | 7.00 to 7.70 | 6.30 to 7.00 | – | – | – |
| C=CCn1c(=O)c2cnc(Nc3cc(C)cc(F)c3)nc2n1-c1cccc(NC2CCNCC2)n1 [Compound 160, 2-allyl-6-(3-fluoro-5-toluidino)-1-[6-(4-piperidylamino)-2-pyridyl]-1,2-dihydro-3H-1,2,5,7-tetraazainden-3-one] | > 8.00 | 6.30 to 7.00 | 6.30 to 7.00 | – | – | – |
| C=CCn1c(=O)c2cnc(Nc3ccc(Cl)cc3)nc2n1-c1cccc(N[C@H]2CCCNC2)n1 [Compound 165, 1-{6-[(S)-3-piperidylamino]-2-pyridyl}-2-allyl-6-(p-chlorophenylamino)-1,2-dihydro-3H-1,2,5,7-tetraazainden-3-one] | > 8.00 | 7.00 to 7.70 | 6.00 to 6.30 | – | – | – |
| C=CCn1c(=O)c2cnc(Nc3ccc(Cl)cc3)nc2n1-c1cccc(N[C@@H]2CCCNC2)n1 [Compound 166, 1-{6-[(R)-3-piperidylamino]-2-pyridyl}-2-allyl-6-(p-chlorophenylamino)-1,2-dihydro-3H-1,2,5,7-tetraazainden-3-one] | > 8.00 | 6.30 to 7.00 | < 6.00 | – | – | – |
| C=CCn1c(=O)c2cnc(Nc3ccc(Cl)cc3)nc2n1-c1cccc(N[C@@H]2CCCN(C)C2)n1 [Compound 168, 1-{6-[(R)-1-methyl-3-piperidylamino]-2-pyridyl}-2-allyl-6-(p-chlorophenylamino)-1,2-dihydro-3H-1,2,5,7-tetraazainden-3-one] | > 8.00 | < 6.30 | < 6.00 | – | – | – |
| C=CCn1c(=O)c2cnc(Nc3cnn(C(C)C)c3)nc2n1-c1cccc(N(C)C2CCNCC2)n1 [Compound 169, 1-{6-[methyl(piperidin-4-yl)amino]pyridin-2-yl}-2-(prop-2-en-1-yl)-6-{[1-(propan-2-yl)-1H-pyrazol-4-yl]amino}-1H,2H,3H-pyrazolo[3,4-d]pyrimidin-3-one] | – | – | – | > 8.00 | < 6.30 | < 6.00 |
